Tests used:
[1] = test system: βTC3 cells; assay: MTT cell viability assay in βTC3 cells; type: cell-based, mouse
Protocol: 1A: Glutamate induces a dose-dependent beta-cell death. 24 hrs after plating, αTC1 and βTC3 cells were incubated for five days with the indicated glutamate concentrations and viability was assessed by MTT assay. Data are presented as % Relative Growth Rate (RGR) versus controls (100%) and represent the mean±SE of at least 7 independent experiments (n=6). * p<0.01 vs ctrl; ° p<0.01 vs Glu 5 mM in αTC1.
1C: β-cell death is prevented by pharmacological inhibition of ionotropic channels. 24 hrs after plating, αTC1 and βTC3 cells were incubated for five days with 0.025 mM CNQX (left panel) or 0.1 mM APV (right panel), in the presence or the absence of 5 mM glutamate and viability was assessed by MTT assay. Data are presented as % RGR versus control samples (100%) and represent the mean±SE of three independent experiments (n=5). * p<0.05
6B. MTT assay. 24 hrs after plating, αTC1 and βTC3 cells were incubated for five days with different DHK concentrations and viability was assessed by MTT assay. Data are presented as % RGR versus control (100%) and represent the mean±SE of three independent experiments (n=8). * (DHK versus control) p<0.05
8B: MTT assay: 24 hrs after plating, βTC3 cells were incubated for five days with the indicated ceftriaxone concentrations in the presence or absence of 5 mM glutamate and viability was assayed by MTT assay. Data are presented as % RGR versus control (100%) and represent the mean±SE of three independent experiments (n=8). *(ceftriaxone versus relative control) p<0.05.
βTC3 and αTC1 cells were derived from progeny of transgenic mice expressing SV40 large T-antigen under control of the rat insulin II 5′-flanking region or rat preproglucagon 5′-flanking region, respectively (Powers et al, 1990) and were originally provided by Douglas Hanahan (Department of Biochemistry and Biophysics, University of California, San Francisco, Calif.). βTC3 were grown in RPMI 1640 11 mM glucose, supplemented with 10% heat inactivated fetal bovine serum, 2 mM L-glutamine, and 100 IU/ml streptomycin/penicillin, as previously described (Galbiati et al, 2002). Experiments were performed between the 27 and 33 passage of cell culture.
(§1) 3-(4,5-Dimethylthiazol-2-yl)-2,5-diphenyltetrazolium bromide (MTT) assay. βTC3 cells were seeded at a density of 8×10^3 cells/well onto 96-well culture plates. Cells were allowed to attach and grow for 24 h in standard medium. Then medium was replaced with fresh medium containing glutamate, DHK (Dihydrokainic Acid, Sigma Aldrich), glutamate receptor inhibitors APV and CNQX (Sigma Aldrich) or ceftriaxone (Sigma Aldrich) at the indicated concentrations. […] Coloured formazan product was determined spectrophotometrically at 540 nm. 20 islets/tube were used to assess viability in human isolated islets. Data are expressed as % Relative Growth Rate (% RGR) versus control samples.

[2] = test system: GLT1; assay: GLT1 expression in βTC3 cells by western blotting; type: cell-based, mouse; conditions: 10 μM ceftriaxone, five days
Protocol: (§2) 6D ShRNA interference. βTC3 cells were transfected with two different shRNA directed against GLT1 (Sh1, Sh3) or a control shRNA (ShC), and three days after transfection, cells were assayed for 3[H]-D-aspartate uptake (b) or lysed and the presence of GLT assayed by western blotting (a) or fixed and processed for TUNEL (c).
8A: GL1 expression. 150.000 cells were plated on […] diameter Petri dishes and 24 hours after plating, they were incubated with 10 μM ceftriaxone for five days. After incubation cells were lysed and 100 μg of whole lysate extracts were separated onto a 9% SDS-PAGE and the expression of glutamate transporter was detected using specific anti-GLT1 or anti-β-catenin antibodies. The expression of GLT1 was quantified by densitometry, and normalized over β-catenin content. Shown is a representative experiment; Similar results were obtained in two other independent experiments.
βTC3 or αTC1 cells were seeded onto 6-cm tissue culture plates and allowed to attach and grow until confluence. […] After 1 h at 4 C, lysates were centrifuged at 13,000 rpm for 10 min, and 50 μg of total extracted proteins were analyzed on 9% SDS-PAGE and transferred onto nitrocellulose (Shleicher and Shull, Dassel, Germany). […] The signal intensities were densitometrically quantified using Scion Image software. […]

[3] = test system: human isolated islets; type: cell-based; conditions: 16.7 mM glucose; DHK (0.3 mM) or L-glutamate (0.5 mM) alone
Protocol: FIG. 5: GLT1 CONTROLS HORMONE SECRETION IN HUMAN ISOLATED ISLETS. 48 hours after isolation, 20 human islets per tube were exposed to 3.3 or 16.7 mM glucose in the absence and the presence of either L-glutamate (0.5 mM), DHK (0.3 mM) or both L-glutamate and DHK, and insulin secretion measured. Levels of secreted insulin from islets were normalized to total insulin content. Data are expressed as % of insulin content and represent the mean±SD of two independent experiments performer in duplicate.
Insulin content and secretion were assessed on 20 islets, using a Micro-particle Enzyme Immunoassay (MEIA insulin, IMX System, Abbott Laboratories, Abbott Park, Ill., USA). Insulin secretion in response to increasing glucose concentrations, glutamate or DHK treatment was assessed by static incubation as previously described (Federici et al, 2000). Briefly, batches of 20 islets were pre-incubated in 1 ml of Krebs-Ringer buffer (KRB) supplemented with 3, 3 or 16.7 mM glucose for 30 min. Then the supernatants were replaced with Kreb's buffer containing 3, 3 or 16.7 mM glucose plus glutamate or the specific GLT1 inhibitor DHK (Sigma, St Louis, Mo., USA), as indicated. After a 30-min incubation at 37° C., the medium was removed and frozen for immunoassays. At the end of incubation, islets were lysed in lyses buffer and the total insulin content determined by immunoassay. […]

[4] = test system: human isolated islets; assay: MTT viability assay in isolated human islets; type: cell-based; conditions: 5 mM glutamate, three days, 16.7 mM glucose
Protocol: 7A: MTT assay: 48 hrs after isolation, 20 islets/tube were incubated for three days with the indicated glutamate and DHK concentrations in the presence of 3.3 mM glucose or 16.7 mM glucose and viability was assessed by MTT assay. Data are expressed as % Relative Growth Rate (% RGR) versus control samples and are the means±SE of three different experiments performed in triplicate.
Human pancreatic islets were isolated from the pancreases of cadaveric multiorgan donors by using the procedure already described by Ricordi (Ricordi, et al, 1988). The islets used in this study were isolated from eight different organs. After the isolation, the islets were purified from the contaminant exocrine tissue by centrifugation on Ficoll gradients, obtaining a final purity that ranged from 60% to 80%, as assayed by dithizone staining (Ricordi et al, 1988). Islets were then cultured in RPMI 1640 tissue culture medium. […]
3-(4,5-Dimethylthiazol-2-yl)-2,5-diphenyltetrazolium bromide (MTT) assay. βTC3 cells were seeded at a density of 8×10^3 cells/well onto 96-well culture plates. […] After five days incubation, cell viability was assessed using the MTT method, according to the manufacturer's protocols (Sigma Aldrich). Coloured formazan product was determined spectrophotometrically at 540 nm. […] Data are expressed as % Relative Growth Rate (% RGR) versus control samples.

[5] = test system: αTC1 cells; assay: MTT cell viability assay in αTC1 cells; type: cell-based, mouse
Protocol: 1A: Glutamate induces a dose-dependent beta-cell death. […] Data are presented as % Relative Growth Rate (RGR) versus controls (100%) and represent the mean±SE of at least 7 independent experiments (n=6). * p<0.01 vs ctrl; ° p<0.01 vs Glu 5 mM in αTC1.
αTC1 were cultured in DMEM 25 mM glucose supplemented with 10% heat inactivated fetal bovine serum, 2 mM glutamine, and 100 IU/ml streptomycin/penicillin, as previously described (Galbiati et al, 2002). Experiments were performed between the 33 and 43 passage of cell culture. Cells were cultured under standard humidified conditions of 5% CO2 at 37° C.
as §1

[6] = test system: βTC3 cells; assay: TUNEL apoptosis assay in βTC3 cells; type: cell-based; conditions: 0.5 mM glutamate for 5 days
Protocol: 1B: Glutamate overstimulation causes increased β-cell apoptosis. 24 hours after plating, βTC3 cells were incubated for five days with 0.5 mM glutamate, and cell apoptosis was assessed by TUNEL assay. The cell nuclei were labelled with PrI. Histograms on the right represent TUNEL positive cells per field, and are the mean±SE of two independent experiments performed in duplicate.
6C TUNEL assay: 24 hours after plating, βTC3 cells were incubated for five days with 0.1 mM DHK, and cell apoptosis was assessed by TUNEL assay. Cell nuclei were labelled with PrI. Data are presented as TUNEL positive cells per field (histograms on the right), and are the mean±SE of two independent experiments performed in duplicate. * P<0.05
as §2
Apoptosis of β-TC3 cells was estimated using the terminal deoxynucleotidyltransferase-mediated dUTP-biotin nick end-labelling assay (TUNEL). […] Tunel-positive cells were counted by two independent observers using a 40× objective from at least 40 randomly selected fields per coverslip. […]

[7] = acute exposure (15 min, 0.5 μM glutamate) or exposure for 2 days

N#Cc1cc2c(cc1[N+](=O)[O-])=NC(=O)C(=O)N=2 [CNQX, 6-Cyano-7-nitroquinoxaline-2,3-dione] was tested, and the “increase in RGR relative to 5 mM glutamate” value ([1]; 0.025 mM CNQX with 5 mM glutamate, five days) was 30% and the “prevention of vulnerability of β-cells to glutamate” value ([1]; co-administration with 5 mM glutamate, five days, 0.025 mM CNQX or 0.1 mM APV) was “partially prevented”.

In the case of CO/N=C(\C(=O)N[C@@H]1C(=O)N2C(C(=O)O)=C(CSc3nc(=O)c(=O)[nH]n3C)CS[C@H]12)c1csc(N)n1 [ceftriaxone], the “protection from glutamate toxicity” value ([1]; five days with ceftriaxone, 5 mM glutamate) was “dose-dependent protection” and the GLT1/EAAT2 transporter expression [2] was “increased transporter's expression”.

With N[C@@H](CCC(=O)O)C(=O)O [glutamate] the “effect on insulin secretion” value [3] was “No effect”, the “reduction in RGR (cell viability)” value ([1]; 0.05 mM glutamate, five days) was 11.53 ± 0.52% and the “reduction in RGR (cell viability)” value ([1]; 5 mM glutamate, five days) was 51.46 ± 2.61%. For the same compound, the “effect on cell survival” value [1, 7] was “did not find any effect”, the “RGR decrease (cell viability)” value [4] was 18% and the “glutamate toxicity (cell viability)” value ([5]; 0.05 to 5 mM glutamate, five days) was “detectable only at the highest glutamate concentration (5 mM)”. For the same compound, the “effect on cell survival” value [5, 7] was “did not find any effect” and the “number of TUNEL positive cells” value [6] was “significant increase”.
